The test system of test [1] is p53 wild-type tumor cell lines. In words: Cell viability assay (72 hours), panel of tumor cell lines. The class given is cell-based. The source says:
SJSA-1, HCT116, ACHN, NCI-H460, MOLM-13, RKO, MCF7, 22RV1, HT-29, PC-3, NCI-H82, NCI-SNU1, and MG-63 cells were purchased from the ATCC, and have since been authenticated by short tandem repeat analysis (PowerPlex 18D Kit from Promega). NCI-H2452, SW982, C32, SK-HEP-1, A375, RT4, RPMI-2650, MDA-MB-134-VI, NCI-H2347, and A427 cells were purchased from ATCC and used within 6 months. IGR-1 and CML-T1 cells were purchased from German Collection of Microorganisms and Cell Cultures (DSMZ) and used within 6 months. A375sq2 cells were generated by in vivo passaging A375 cells in mice. HCT116 p53^−/− cells were obtained from Bert Vogelstein. […]
CellTiter-Glo Luminescent Cell Viability (Promega) or ATPlite 1 step Luminescent (PerkinElmer) assay kits were used to determine the numbers of viable cells. Luminescence was measured with an EnVision Multilabel Reader (PerkinElmer) for each cell line at time zero (V0) before the addition of compounds, as well as after 72 hours of compound treatment. Growth inhibition (GI) was calculated on a 200-point scale according to the following equations, where V72 was luminescence of DMSO control at 72 hours and T72 was luminescence of the compound-treated sample: if T72>V0, then GI=100×(1−((T72−V0)/(V72−V0))); if T72<V0, then GI=100×(1−((T72−V0)/V0)). […]

Test [2] relates to SJSA-1 (MDM2 amplified) tumor. The test can be described thus: SJSA-1 xenograft study. The class given is in vivo, female athymic nude mice. The procedure: (§1) All animal experimental procedures were conducted in accordance with Association for Assessment and Accreditation of Laboratory Animal Care standards. All studies utilized 4- to 6-week-old female athymic nude mice (Harlan Laboratories, Hsd: Athymic Nude-Foxn1nu). The mice were housed five per filter-capped cage in sterile housing in an environmentally controlled room (temperature 23±2° C., relative humidity 50±20%) on a 12-hour light/dark cycle. The mice were fed commercial rodent chow (Harlan Laboratories, #2920X) and received filter-purified tap water ad libitum. The mice were individually identified by microchips (Bio Medic Data Systems) that were implanted subcutaneously at least 2 days before the study.
Treatment began when tumors were established and approximately 200 mm3. […] Tumor dimensions were assessed twice weekly with a Pro-Max electronic digital caliper (Sylvac) and tumor volume was calculated using the formula: length×width×height and expressed as mm3. Data are expressed as mean±SEM. […] Analysis of p21 mRNA at the end of the xenograft studies was performed as described for the p21 pharmacodynamic assay.

For another test, the system named is HCT116 (KRAS) tumor. In words: HCT116 xenograft study. It is filed as in vivo, female athymic nude mice. The procedure:
as §1
(§2) SJSA-1 cells (5×10^6 cells with Matrigel at a ratio of 2:1), NCI-H460 cells (5×10^6 cells with Matrigel at a ratio of 2:1), A375sq2 (5×10^6 cells with Matrigel at a ratio of 2:1), or HCT116 ([…]) were injected subcutaneously in the flank of female athymic nude mice (n=10/group). Treatment began when tumors were established and approximately 200 mm3. The compound of Formula (I) was administered once per day by oral gavage. Tumor dimensions were assessed twice weekly with a Pro-Max electronic digital caliper (Sylvac) and tumor volume was calculated using the formula: length×width×height and expressed as mm3. Data are expressed as mean±SEM. Body weight was recorded twice weekly to assess tolerability (data not shown). Analysis of p21 mRNA at the end of the xenograft studies was performed as described for the p21 pharmacodynamic assay.

Another test concerns A375sq2 (BRAF) tumor. The test can be described thus: A375sq2 xenograft study. It is filed as in vivo, female athymic nude mice. The procedure:
as §1
as §2, with “The compound of Formula (I) was administered once per day by oral gavage.” left out, “Analysis of p21 mRNA at the end of the xenograft studies was performed as described for the p21 pharmacodynamic assay.” left out

The test system of test [3] is tumor cell lines harboring wild-type p53. The test can be described thus: Xenograft models of different genetic backgrounds and tumor types (all models). The class given is in vivo, female athymic nude mice. Conditions: daily oral administration, FIGS. 3-5. As for the experimental part: as §1
as §2, with “The compound of Formula (I) was administered once per day by oral gavage.” left out, “Analysis of p21 mRNA at the end of the xenograft studies was performed as described for the p21 pharmacodynamic assay.” left out

For a further test, the system named is p21 mRNA. The test can be described thus: p21 mRNA in tumors harvested at the end of xenograft studies (qRT-PCR). The class given is in vivo, female athymic nude mice. Conditions: FIG. 6. As for the experimental part: Tumor cells (SJSA-1: 5×10^6 cells, HCT 116: 2×10^6 cells) were injected subcutaneously into the flank of female athymic nude mice in a 2:1 ratio of cells to Matrigel (BD Bioscience). […] Tumors were harvested after 1, 2, 4, 8, and 24 hours after dose (SJSA-1) or 6 hours after dose (HCT116) and snap-frozen in liquid nitrogen. Total RNA was purified using Qiagen RNeasy 96 kit (Qiagen). The levels of p21 and the housekeeping gene GAPDH were assayed from total RNA from each sample in technical duplicates by qRTPCR. The qRT-PCR reactions were assayed on the Applied Biosystems Prism 7900HT instrument and the data were analyzed with Applied Biosystems SDS2.2 software. The SDS2.2 software calculated the p21 and GAPDH copy number in each of the tumor samples. The copy number of p21 was normalized to the copy number of the GAPDH, and the fold increase of normalized p21 levels were calculated relative to vehicle control for each sample. For MIC-1, plasma was collected at the time of sacrifice and MIC-1 was detected using R&D Quantikine Human MIC-1 Immunoassay (cat no. DGD150) following the manufacturer's instructions. The ELISA assay was read using a Spectramax M5 microplate reader using Softmax pro v4 (Molecular Devices). […]

For a further test, the system named is AML tumor. The test can be described thus: AML tumor growth (FIG. 7, FIG. 8). The class given is in vivo, mouse.
The next test has as its system cell cycle. The test can be described thus: Cell cycle (FIG. 9). The class given is cell-based.
Test [4] deals with p53 wild type AML cell lines. In words: Apoptosis in AML cell lines (FIG. 10). It is filed as cell-based.

For orientation: IC50 means the midpoint of a concentration-inhibition curve. The term ED50 denotes the dose that gives a 50% effect, or the effect in half of the subjects. A word on the TGI: it is how far tumour growth fell short of that in controls. Lower therefore signals little slowing of growth. With `CC(C)[C@@H](CS(=O)(=O)C(C)C)N1C(=O)[C@@](C)(CC(=O)O)C[C@H](c2cccc(Cl)c2)[C@H]1c1ccc(Cl)cc1` [compound of Formula (I), 2-((3R,5R,6S)-5-(3-chlorophenyl)-6-(4-chlorophenyl)-1-((S)-1-(isopropylsulfonyl)-3-methylbutan-2-yl)-3-methyl-2-oxopiperidin-3-yl) acetic acid], the IC50 in test [1] (23 p53 wild-type cell lines, 72-hour period, read-out: IC50, inhibition of cell growth) lay in the range of 100 to 1000 nM. Further, the “proliferation of p53 WT tumor cells” value in [1] (FIG. 2) is “inhibits the proliferation of p53 WT tumor cells”. Further, the “tumor regrowth after treatment stopped” value in test [2] (75 mg/kg group, treatment stopped after day 25, observed additional 50 days) is on record as “no detectable SJSA-1 tumor regrowth”. Further, the ED50 in [2] (Mus musculus, SJSA-1, po, once per day by oral gavage, read-out: ED50, in vivo tumor growth) came to 9 mg/kg; with HCT116 (KRAS) tumor (Mus musculus, HCT-116, po, once per day by oral gavage, read-out: ED50, in vivo tumor growth), 31.6 mg/kg; in the test with A375sq2 (BRAF) tumor (Mus musculus, A375-SQ2, once per day by oral gavage, read-out: ED50, in vivo tumor growth) it was 18 mg/kg. Besides, the “tumors completely regressed and undetectable” value in test [2] (highest dose group of 75 mg/kg, after 10 days of treatment) was 10 of 10. Also, in the test with HCT116 (KRAS) tumor (highest dose), the “TGI compared with control” value is reported as 86%. The “ED50, in vivo tumor growth” value with HCT116 (KRAS) tumor (once per day by oral gavage) was 31 mg/kg. Also, the TGI in the test with A375sq2 (BRAF) tumor (mouse, in vivo) is 97%. The “tumor growth inhibition (TGI) across all models” value in [3] is reported as “significant tumor growth inhibition”. Moreover, the “induction of p21 mRNA compared with vehicle-treated tumors” value in the test with p21 mRNA was “dose- and time-dependent induction of p21 mRNA”. Further, the AML tumor growth entry in the test with AML tumor was “inhibits AML tumor growth in a mouse model in a dose dependent manner”. In the test with cell cycle, the “effect on cell cycle” value is reported as “inhibits the cell cycle”. The apoptosis entry in [4] was “induces apoptosis”.

For the origin of these results see patent US12115153B2, “Methods of treating cancer” (Kartos Therapeutics, Inc., priority 2018, dated 2024).
